Experimental data reported in the supplement of paper PMC10307832.

Columns and labels:
Experiment in all cases: relative viability (nuclei count vs DMSO), 5 days (fraction); higher = more cells survive
NCI-H460 = tested on: NCI-H460
In short: (§1)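 Relative viability divides the nuclei count in treated wells by that in vehicle wells. Lung cancer cell lines were seeded in 1536-well plates, dosed by pin tool the next day, and fixed and stained after 5 days in one step with final 0.05% Triton X-100, 1% formaldehyde and 1 ug/ml Hoechst. Dosing was a single drug or a fixed anchor-drug dose plus five library-drug doses (not always all listed) in √10 steps, and values are medians of duplicate plates imaged at 4×.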

NCI-H2023 = tested on: NCI-H2023
In short: as §1

COR-L23 = tested on: COR-L23
In short: as §1

RERF-LC-KJ = tested on: RERF-LC-KJ
In short: as §1

NCI-H1650 = tested on: NCI-H1650
In short: as §1

NCI-H1993 = tested on: NCI-H1993
In short: as §1

NCI-H2009 = tested on: NCI-H2009
In short: as §1

201T = tested on: 201T
In short: as §1

SW 1573 = tested on: SW 1573
In short: as §1

A-427 = tested on: A-427
In short: as §1

LCLC-103H = tested on: LCLC-103H
In short: as §1

ChaGo-K-1 = tested on: ChaGo-K-1
In short: as §1

NCI-H650 = tested on: NCI-H650
In short: as §1

HCC-44 = tested on: HCC-44
In short: as §1

LCLC-97TM1 = tested on: LCLC-97TM1
In short: as §1

HCC-366 = tested on: HCC-366
In short: as §1

LOU-NH91 = tested on: LOU-NH91
In short: as §1

HCC-78 = tested on: HCC-78
In short: as §1

NCI-H1734 = tested on: NCI-H1734
In short: as §1

NCI-H2126 = tested on: NCI-H2126
In short: as §1

NCI-H441 = tested on: NCI-H441
In short: as §1

HCC-15 = tested on: HCC-15
In short: as §1

HARA = tested on: HARA
In short: as §1

SMILES: O=C(O)CCCCC(CCSCc1ccccc1)SCc1ccccc1 (centres undefined) [CPI-613] + C[C@@H](Oc1cc(-c2cnn(C3CCNCC3)c2)cnc1N)c1c(Cl)ccc(F)c1Cl [Crizotinib] (partner 1 µM)
- relative viability (NCI-H460; first compound 5 µM): 0.889
- relative viability (NCI-H460; first compound 15.81 µM): 0.892
- relative viability (NCI-H460; first compound 50 µM): 0.728
- relative viability (NCI-H460; first compound 158.11 µM): 0.115
- relative viability (NCI-H460; first compound 500 µM): 0.0085
- relative viability (NCI-H2023; first compound 5 µM): 0.583
- relative viability (NCI-H2023; first compound 15.81 µM): 0.605
- relative viability (NCI-H2023; first compound 50 µM): 0.598
- relative viability (NCI-H2023; first compound 158.11 µM): 0.388
- relative viability (NCI-H2023; first compound 500 µM): 0.0057
- relative viability (COR-L23; first compound 5 µM): 0.635
- relative viability (COR-L23; first compound 15.81 µM): 0.598
- relative viability (COR-L23; first compound 50 µM): 0.647
- relative viability (COR-L23; first compound 158.11 µM): 0.226
- relative viability (COR-L23; first compound 500 µM): 0.0141
- relative viability (RERF-LC-KJ; first compound 5 µM): 0.841
- relative viability (RERF-LC-KJ; first compound 15.81 µM): 0.789
- relative viability (RERF-LC-KJ; first compound 50 µM): 0.76
- relative viability (RERF-LC-KJ; first compound 158.11 µM): 0.876
- relative viability (RERF-LC-KJ; first compound 500 µM): 0.268
- relative viability (NCI-H1650; first compound 5 µM): 0.991
- relative viability (NCI-H1650; first compound 15.81 µM): 0.854
- relative viability (NCI-H1650; first compound 50 µM): 0.853
- relative viability (NCI-H1650; first compound 158.11 µM): 0.579
- relative viability (NCI-H1650; first compound 500 µM): 0.0088
- relative viability (NCI-H1993; first compound 5 µM): 0.862
- relative viability (NCI-H1993; first compound 15.81 µM): 0.852
- relative viability (NCI-H1993; first compound 50 µM): 1.01
- relative viability (NCI-H1993; first compound 158.11 µM): 0.639
- relative viability (NCI-H1993; first compound 500 µM): 0.438
- relative viability (NCI-H2009; first compound 5 µM): 1.1
- relative viability (NCI-H2009; first compound 15.81 µM): 1.01
- relative viability (NCI-H2009; first compound 50 µM): 1.04
- relative viability (NCI-H2009; first compound 158.11 µM): 0.462
- relative viability (NCI-H2009; first compound 500 µM): 0.0097
- relative viability (201T; first compound 5 µM): 1.04
- relative viability (201T; first compound 15.81 µM): 0.989
- relative viability (201T; first compound 50 µM): 0.94
- relative viability (201T; first compound 158.11 µM): 0.93
- relative viability (201T; first compound 500 µM): 0.984
- relative viability (SW 1573; first compound 5 µM): 0.81
- relative viability (SW 1573; first compound 15.81 µM): 0.749
- relative viability (SW 1573; first compound 50 µM): 0.878
- relative viability (SW 1573; first compound 158.11 µM): 0.819
- relative viability (SW 1573; first compound 500 µM): 0.419
- relative viability (A-427; first compound 5 µM): 0.89
- relative viability (A-427; first compound 15.81 µM): 0.885
- relative viability (A-427; first compound 50 µM): 0.754
- relative viability (A-427; first compound 158.11 µM): 0.175
- relative viability (A-427; first compound 500 µM): 0.126
- relative viability (LCLC-103H; first compound 5 µM): 1.11
- relative viability (LCLC-103H; first compound 15.81 µM): 1.1
- relative viability (LCLC-103H; first compound 50 µM): 0.917
- relative viability (LCLC-103H; first compound 158.11 µM): 0.855
- relative viability (LCLC-103H; first compound 500 µM): 0.861
- relative viability (ChaGo-K-1; first compound 5 µM): 1.14
- relative viability (ChaGo-K-1; first compound 15.81 µM): 1.05
- relative viability (ChaGo-K-1; first compound 50 µM): 0.992
- relative viability (ChaGo-K-1; first compound 158.11 µM): 1.04
- relative viability (ChaGo-K-1; first compound 500 µM): 0.813
- relative viability (NCI-H650; first compound 5 µM): 0.665
- relative viability (NCI-H650; first compound 15.81 µM): 0.703
- relative viability (NCI-H650; first compound 50 µM): 0.677
- relative viability (NCI-H650; first compound 158.11 µM): 0.626
- relative viability (NCI-H650; first compound 500 µM): 0.649
- relative viability (HCC-44; first compound 5 µM): 0.834
- relative viability (HCC-44; first compound 15.81 µM): 0.791
- relative viability (HCC-44; first compound 50 µM): 0.785
- relative viability (HCC-44; first compound 158.11 µM): 0.295
- relative viability (HCC-44; first compound 500 µM): 0.0369
- relative viability (LCLC-97TM1; first compound 5 µM): 0.465
- relative viability (LCLC-97TM1; first compound 15.81 µM): 0.516
- relative viability (LCLC-97TM1; first compound 50 µM): 0.379
- relative viability (LCLC-97TM1; first compound 158.11 µM): 0.11
- relative viability (LCLC-97TM1; first compound 500 µM): 0.0433
- relative viability (HCC-366; first compound 5 µM): 0.533
- relative viability (HCC-366; first compound 15.81 µM): 0.483
- relative viability (HCC-366; first compound 50 µM): 0.381
- relative viability (HCC-366; first compound 158.11 µM): 0.331
- relative viability (HCC-366; first compound 500 µM): 0.0154
- relative viability (LOU-NH91; first compound 5 µM): 0.801
- relative viability (LOU-NH91; first compound 15.81 µM): 0.692
- relative viability (LOU-NH91; first compound 50 µM): 0.765
- relative viability (LOU-NH91; first compound 158.11 µM): 0.71
- relative viability (LOU-NH91; first compound 500 µM): 0.722
- relative viability (HCC-78; first compound 5 µM): 0.346
- relative viability (HCC-78; first compound 15.81 µM): 0.318
- relative viability (HCC-78; first compound 158.11 µM): 0.348
- relative viability (HCC-78; first compound 500 µM): 0.331
- relative viability (NCI-H1734; first compound 5 µM): 0.695
- relative viability (NCI-H1734; first compound 15.81 µM): 0.685
- relative viability (NCI-H1734; first compound 50 µM): 0.62
- relative viability (NCI-H1734; first compound 158.11 µM): 0.279
- relative viability (NCI-H1734; first compound 500 µM): 0.113
- relative viability (NCI-H2126; first compound 5 µM): 1.01
- relative viability (NCI-H2126; first compound 15.81 µM): 0.999
- relative viability (NCI-H2126; first compound 50 µM): 0.942
- relative viability (NCI-H2126; first compound 158.11 µM): 0.706
- relative viability (NCI-H2126; first compound 500 µM): 0.23
- relative viability (NCI-H441; first compound 5 µM): 0.685
- relative viability (NCI-H441; first compound 15.81 µM): 0.683
- relative viability (NCI-H441; first compound 50 µM): 0.635
- relative viability (NCI-H441; first compound 158.11 µM): 0.303
- relative viability (NCI-H441; first compound 500 µM): 0.343
- relative viability (HCC-15; first compound 5 µM): 0.772
- relative viability (HCC-15; first compound 15.81 µM): 0.746
- relative viability (HCC-15; first compound 50 µM): 0.776
- relative viability (HCC-15; first compound 158.11 µM): 0.367
- relative viability (HCC-15; first compound 500 µM): 0.326
- relative viability (HARA; first compound 5 µM): 1.04
- relative viability (HARA; first compound 15.81 µM): 1.09
- relative viability (HARA; first compound 50 µM): 1.02
- relative viability (HARA; first compound 158.11 µM): 0.397
- relative viability (HARA; first compound 500 µM): 0.247
